Laboratory results: patent US20250040541A1, “AN ANTIMICROBIAL LIQUID COMPOSITION, PROCESS FOR PREPARING THE SAME AND METHOD OF USE THEREOF” (ISP Investments LLC, priority 2021, published 2025)

What was measured:
Type in all cases: cell-based
[1] = test system: Gram-positive bacteria (Staphylococcus aureus 6538); assay: 28-day double inoculation challenge test in sunscreen emulsion base, Gram-positive inoculum
Protocol: (§1) The test was conducted in sunscreen emulsion base, pH 7 (Table 3).
(§2) Method: The emulsion was formulated with 2% of the blend #1 or with the appropriate controls, plus water to add up to the 2% of the concentration in the emulsion.
(§3) Briefly, each tested sample was split into three containers to be challenged, respectively, with either of the three classes of common contaminants: Gram-positive bacteria, Gram-negative bacteria, and fungi. Accordingly, three types of inocula were prepared as outlined in the Table 4. The Gram-positive bacterial inoculum consisted of the single microorganism, while the Gram-negative bacterial inoculum and fungal inoculum, each, consisted of more than one species pooled together (Table 4).
(§4) The test samples were spiked with the microbial inoculum on days 0 and 21, with the final concentration of bacteria being 10^6 cfu/g and the final concentration of fungi being 10^5 cfu/g. Inoculated samples were incubated at ambient temperature. On days 2, 7, 21 and 28 the samples were plated to recover viable microorganisms. Letheen Agar was used for the recovery of bacteria and on Potato Dextrose Agar was used for the recovery of fungi.

[2] = test system: Gram-negative bacteria (Escherichia coli 8739, Pseudomonas aeruginosa 9027, Burkholderia cepacia 25416); assay: 28-day double inoculation challenge test in sunscreen emulsion base, Gram-negative inoculum
Protocol: as §1, §2, §3, §4

[3] = test system: Fungi (Candida albicans 10231 and Aspergillus brasiliensis 16404); assay: 28-day double inoculation challenge test in sunscreen emulsion base, fungal inoculum
Protocol: as §1, §2, §3, §4

[4] = 0.75% active, 1.25% water in sunscreen emulsion base, pH 7, 2 days
[5] = 0.75% active, 1.25% water in sunscreen emulsion base, pH 7, 7 days
[6] = 0.75% active, 1.25% water in sunscreen emulsion base, pH 7, 21 days (before re-inoculation)
[7] = 0.75% active, 1.25% water in sunscreen emulsion base, pH 7, 28 days (7 days after re-inoculation)
[8] = 0.5% active, […] water in sunscreen emulsion base, pH 6.99, 2 days
[9] = 0.5% active, […] water in sunscreen emulsion base, pH 6.99, 7 days
[10] = 0.5% active, […] water in sunscreen emulsion base, pH 6.99, 21 days (before re-inoculation)
[11] = 0.5% active, […] water in sunscreen emulsion base, pH 6.99, 28 days (7 days after re-inoculation)

SMILES | plate counts recovered [1, 4] | plate counts recovered [1, 5] [cfu/g] | plate counts recovered [1, 6] [cfu/g] | plate counts recovered [2, 4] | plate counts recovered [2, 5] | plate counts recovered [2, 6] | plate counts recovered [2, 7] | plate counts recovered [3, 4] | plate counts recovered [3, 5] | plate counts recovered [3, 6] | plate counts recovered [3, 7] | other results
OCCCc1ccccc1 [Phenylpropanol] | >10^4 cfu/g | <10 | <10 | >10^4 cfu/g | >10^4 cfu/g | 6.00 × 10^3 cfu/g | >10^4 cfu/g | 3.70 × 10^4 cfu/g | 1.80 × 10^4 cfu/g | 4.00 × 10^3 cfu/g | >10^4 cfu/g | plate counts recovered [1, 7]: 1.30 × 10^3 cfu/g
CC(=O)CCc1ccc(O)cc1 [Raspberry ketone, 4-(4-hydroxyphenyl) butan-2-one] |  |  |  |  |  |  |  |  |  |  |  | plate counts recovered [1, 8]: >10^4 cfu/g; plate counts recovered [1, 9]: <10 cfu/g; plate counts recovered [1, 10]: <10 cfu/g; plate counts recovered [1, 11]: 2.1 × 10^2 cfu/g; plate counts recovered [2, 8]: >10^4 cfu/g; plate counts recovered [2, 9]: >10^4 cfu/g; plate counts recovered [2, 10]: 1.3 × 10^3 cfu/g; plate counts recovered [2, 11]: >10^4 cfu/g; plate counts recovered [3, 8]: 2.4 × 10^4 cfu/g; plate counts recovered [3, 9]: 2.40 × 10^4 cfu/g; plate counts recovered [3, 10]: 4.4 × 10^3 cfu/g; plate counts recovered [3, 11]: >10^4 cfu/g
OCCCO [1,3-Propanediol] | >10^4 cfu/g | <10 | <10 | >10^4 cfu/g | <10 cfu/g | <10 cfu/g | 2.00 × 10^2 cfu/g | 3.40 × 10^4 cfu/g | 1.6 × 10^4 cfu/g | 9.5 × 10^4 cfu/g | >10^4 cfu/g | 
